The supplement of paper PMC10307832

Legend:
Test in all cases: relative viability (nuclei count vs DMSO), 5 days (fraction); higher = more cells survive
[1] = compound: CC1=CC(=C(N1C2=CC=C(C=C2)Cl)C)C(=O)CN3CCCCC3 [IU1-47] + Nc1ncn([C@H]2C[C@H](O)[C@@H](CO)O2)c(=O)n1 [Decitabine] (partner 2 µM)
How it was run: (§1)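 Each reported value is a median over duplicate plates. It expresses relative viability: treated-well nuclei count divided by vehicle-well nuclei count. Lung cancer cell lines in 1536-well plates were dosed by pin tool a day after seeding, alone with one drug or with a fixed anchor-drug dose plus five library-drug doses (not always all listed) in √10 steps, and nuclei were counted after 5 days.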

[2] = compound: CC1=CC(=C(N1C2=CC=C(C=C2)Cl)C)C(=O)CN3CCCCC3 [IU1-47] + N=C(N)NC(=N)NCCc1ccccc1 [Phenformin] (partner 250 µM)
How it was run: as §1

[3] = compound: CC1=CC(=C(N1C2=CC=C(C=C2)Cl)C)C(=O)CN3CCCCC3 [IU1-47] + CC(=O)Nc1cccc(-n2c(=O)n(C3CC3)c(=O)c3c(Nc4ccc(I)cc4F)n(C)c(=O)c(C)c32)c1 [Trametinib] (partner 0.02 µM)
How it was run: as §1

[4] = compound: Cc1nc(C(=O)NCC(=O)O)c(O)c2ccc(Oc3ccccc3)cc12 [FG-4592] + CC1(C)CCC(c2ccc(Cl)cc2)=C(CN2CCN(c3ccc(C(=O)NS(=O)(=O)c4ccc(N[C@H](CCN5CCOCC5)CSc5ccccc5)c(S(=O)(=O)C(F)(F)F)c4)cc3)CC2)C1 [Navitoclax] (partner 0.5 µM)
How it was run: as §1

Cell Line | relative viability ([1]; first compound 0.08 µM) | relative viability ([1]; first compound 0.253 µM) | relative viability ([1]; first compound 0.8 µM) | relative viability ([1]; first compound 8 µM) | relative viability ([2]; first compound 0.08 µM) | relative viability ([2]; first compound 0.253 µM) | relative viability ([2]; first compound 0.8 µM) | relative viability ([2]; first compound 2.53 µM) | relative viability ([2]; first compound 8 µM) | relative viability ([3]; first compound 0.08 µM) | relative viability ([3]; first compound 0.253 µM) | relative viability ([3]; first compound 0.8 µM) | relative viability ([3]; first compound 8 µM) | relative viability ([4]; first compound 0.08 µM) | relative viability ([4]; first compound 0.253 µM) | relative viability ([4]; first compound 0.8 µM) | relative viability ([4]; first compound 2.53 µM) | relative viability ([4]; first compound 8 µM) | relative viability ([3]; first compound 2.53 µM) | relative viability ([1]; first compound 2.53 µM)
LC-2-ad | 0.996 | 0.788 | 0.792 | 0.78 | 0.616 | 0.607 | 0.577 | 0.558 | 0.57 | 0.951 | 1.02 | 0.954 | 0.884 | 0.489 | 0.465 | 0.329 | 0.458 | 0.503 |  | 
CAL-12T |  |  |  |  | 0.525 | 0.576 | 0.613 | 0.472 | 0.554 | 0.353 | 0.368 | 0.309 | 0.32 | 1.22 | 1.18 | 1.33 | 1.05 | 0.764 | 0.289 | 
RERF-LC-KJ | 0.784 | 0.912 | 0.673 | 0.578 | 0.415 | 0.423 | 0.421 | 0.493 | 0.411 | 0.845 | 0.883 | 0.998 | 0.799 | 0.87 | 0.691 | 1.06 | 1.07 | 0.622 | 1.1 | 0.639
NCI-H1650 | 0.474 | 0.593 | 0.391 | 0.445 | 0.412 | 0.367 | 0.419 | 0.366 | 0.326 | 0.515 | 0.766 | 0.612 | 0.459 | 1.23 | 1.12 | 1.37 | 1.17 | 1.24 | 0.62 | 0.366
BEN | 0.713 | 0.729 | 0.848 | 0.668 | 0.263 | 0.24 | 0.27 |  | 0.275 | 1.21 | 1.1 | 1.23 | 1.15 | 0.0578 | 0.0857 | 0.0654 | 0.0822 | 0.0636 | 0.896 | 0.507
EMC-BAC-2 | 1.07 | 1.03 | 0.996 | 0.924 | 0.548 | 0.569 | 0.53 | 0.627 | 0.409 | 0.978 | 0.948 | 0.942 | 0.946 | 1.13 | 1.12 | 1.11 | 1.16 | 1.09 | 1 | 1.07
LU99A | 0.968 | 0.824 | 0.852 | 0.768 | 0.846 | 0.838 | 0.856 | 0.813 | 0.904 | 0.499 | 0.355 | 0.606 | 0.543 | 0.869 | 0.709 | 0.75 | 0.832 | 0.718 | 0.617 | 0.883
